Laboratory results published in patent publication US10538571B2, “Compositions and methods for neurological diseases” (Coda Biotherapeutics, Inc., priority 2017, dated 2020).

What was measured:
Format in all cases: cell-based
[1] = biological target: T1, engineered chimeric LGIC receptor SEQ ID NO:41 (as SEQ ID NO:33, further comprising the β1-β2 loop domain from GlyRα1) (Homo sapiens, UniProt P36544, F159M/H163T/I152M/K68T/N69T/Q70M/R155K/V154L/W156N/Y151P); assay: Two electrode voltage clamp currents in Xenopus oocytes expressing the receptor; details: FIG. 5
T1 construct: expressed in transfected cells; host or cells: Xenopus oocytes (cDNA injection)
T1 sequence (P36544 with tags, fused parts or gaps K68T/N69T/Q70M/Y151P/I152M/V154L/R155K/W156N/F159M/H163T): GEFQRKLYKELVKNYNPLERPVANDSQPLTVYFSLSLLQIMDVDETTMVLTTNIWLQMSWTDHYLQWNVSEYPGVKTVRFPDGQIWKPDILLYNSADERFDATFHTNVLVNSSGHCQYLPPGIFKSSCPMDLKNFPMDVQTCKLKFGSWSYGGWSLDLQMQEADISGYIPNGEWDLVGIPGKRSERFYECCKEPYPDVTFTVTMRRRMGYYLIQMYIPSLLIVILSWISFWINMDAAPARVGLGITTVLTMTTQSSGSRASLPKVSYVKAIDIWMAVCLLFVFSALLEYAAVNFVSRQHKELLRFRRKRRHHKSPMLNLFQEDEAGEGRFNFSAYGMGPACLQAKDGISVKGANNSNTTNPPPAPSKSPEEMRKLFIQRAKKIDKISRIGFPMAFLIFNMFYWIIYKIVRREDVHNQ
Procedure: (§1) For Xenopus oocyte studies, injections of cDNAs encoding for ion channels at a final concentration of 0.04 μg/μL were performed using a proprietary automated injection device and receptor expression examined at least two days later. Oocytes were poked with two electrodes and their membrane potential maintained at −80 mV throughout the experiment. All recordings were performed at 18° C. and cells were superfused with OR2 medium containing in mM: NaCl 82.5, KCl 2.5, HEPES 5, CaCl2.2H2O 1.8, MgCl2.6H2O 1, pH 7.4. Recordings progressed if oocytes had sufficiently low holding current, in which case they were then subjected to ligand or test compound application (5-10 s wash intervals), with 100 s of wash in between doses. Currents evoked by acetylcholine or other agonists were recorded using an automated process equipped with standard two electrode voltage clamp configuration (TEVC). Data were captured and analyzed using HiQScreen proprietary data acquisition and analysis software running under Matlab (Mathworks Inc.). Acetylcholine was prepared as a concentrated stock solution (10-1 M) in water and then diluted in the recording medium to obtain the desired test concentration. Nicotine was diluted in water as stock solution (10-1 M), kept frozen and diluted immediately prior to the experiment at the desired concentration. Compounds were prepared as stock solution (10-1M) in OR2 and then diluted in the recording medium to obtain the desired test concentration. Stock solution for Compound-1 was made in OR2 at pH 5 adjusted with HCl. To assess that dilution at the final concentration of this stock solution introduced no significant changes, the pH of the final solution was confirmed using a colorimetric assay (Galietta L. J. V., et al. 2001. FEBS Letters 499: 220-224. Kruger W., et al. (2005). Neuroscience Letters 380: 340-345.)
(§2) To better understand the impact of the heterologous domains that had been inserted into the channels, the ligand-dependent response profiles of wild type α7-nAChR and various engineered chimeric LGIC receptors to acetylcholine as well as to non-native ligands TC-6987, AZD-0328, and Facinicline/RG3487 were assessed. Receptors were transiently expressed in […] cells and currents were measured on an automated patch clamp system (Fluxion Biosciences) following 1 second addition of drug. Inclusion of a GlyRα1 Cys-loop sequence in the extracellular domain increased the potency of all small molecules on the engineered receptor (leftward shift in EC50) (e.g. SEQ ID NO:35, FIG. 4C vs SEQ ID NO:16, FIG. 4B). […] Inclusion of both the Cys-loop and β1-β2 loop sequences of GlyRα1 in the extracellular domain reduced the sensitivity by about 1 log from that observed with the full Cys-loop sequence alone, but further increased conductance approximately 2-fold and slowed the rate of deactivation of the channel (SEQ ID NO:41, FIG. 4E vs. SEQ ID NO:33, FIG. 4D).

[2] = biological target: T2, engineered chimeric LGIC receptor SEQ ID NO:33 (α7-nAChR ligand binding domain with GlyRα1 Cys-loop, GlyRα1 ion pore domain) (Homo sapiens, UniProt P36544, F159M/H163T/I152M/R155K/V154L/W156N/Y151P); assay: as above; details: Xenopus oocytes; FIG. 5
T2 construct: expressed in transfected cells; host or cells: Xenopus oocytes (cDNA injection)
T2 sequence (P36544 with tags, fused parts or gaps Y151P/I152M/V154L/R155K/W156N/F159M/H163T): as the sequence (P36544 with tags, fused parts or gaps K68T/N69T/Q70M/Y151P/I152M/V154L/R155K/W156N/F159M/H163T) above, with T46K, T47N, M48Q counted along it
Procedure: as §1, §2

[3] = biological target: T3, SEQ ID NO:33 with substitution W77M (Homo sapiens, UniProt P36544, F159M/H163T/I152M/R155K/V154L/W156N/W77M/Y151P); assay: Plate reader YFP quench (anion reporter) assay, dose response curves; details: FIG. 9B
T3 construct: expressed in transfected cells; host or cells: Lenti-X 293T (HEK293T) cells, pcDNA3.1(+) plasmid
T3 sequence (P36544 with tags, fused parts or gaps W77M/Y151P/I152M/V154L/R155K/W156N/F159M/H163T): as the sequence (P36544 with tags, fused parts or gaps K68T/N69T/Q70M/Y151P/I152M/V154L/R155K/W156N/F159M/H163T) above, with T46K, T47N, M48Q, W55M counted along it
Procedure: Lenti-X 293T cells (LX293T, Clontech) were maintained in DMEM containing 10% FBS and 1% penicillin/streptomycin (Invitrogen). […] The next day, the cells were transiently transfected with 0.1 μg of DNA per well using standard Fugene protocol (Promega). On the day of assay, cells were washed 2 times in 1× extracellular solution (1×ECS: 140 mM NaCl, 5 mM KCl, 1 mM MgCl2, 2 mM CaCl2, 10 mM HEPES, 10 mM glucose, pH 7.2, mOsms 300). After the last wash, 100 μL of 1×ECS was added to the wells and the plate was incubated at 37° C. for 30 min. While incubating the plate, the drugs were diluted to a 2× concentration in 1×ECS-NaI (same components as 1×ECS except the 140 mM NaCl was replaced by 140 mM NaI). The plates were then read on a Flexstation3 (Molecular Devices). Each well, 8 wells at a time, of the plate is read for 2 min using a Flexstation3 (Molecular Devices) as follows: 1) a baseline YFP fluorescence is read for 17 sec, 2) 100 μL of ligand is added, and 3) the changes in YFP fluorescence are then measured every 1.3 sec for the remaining time.
To further tune the responsiveness of the engineered LGIC receptors to native and non-native ligands, the binding pocket of each ligand in the alpha7-nAChR was modeled and the amino acid residues that form the binding pocket were mapped. […]

c1cnc2c(c1)C[C@@]1(CN3CCC1CC3)O2 [AZD-0328]
sensitivity of SEQ ID NO:41 to ligand compared with wild type α7-nAChR [1]: comparably sensitive
fold more sensitive than wild type α7-nAChR [2]: approximately 3 fold
increase in EC50 (rightward shift) compared to unmutated SEQ ID NO:33 [3]: > 2 log
